Results taken from patent US12486250B2, “Muscarinic receptor 4 antagonists and methods of use” (Neurocrine Biosciences, Inc., priority 2019, dated 2025).
Where two headings read alike, the source gives them in different places.

Columns and labels:
[1] = molecular target: T1, MDR1 (Multidrug resistance protein 1) (Homo sapiens, UniProt P08183); experiment: MDCK-MDR1 assay (apparent permeability and efflux ratio); assay type: in vitro ADME; settings: for Papp A→B at 2 h, 5 µM / Papp B→A at 2 h, 5 μM: MDCK-MDR1, pH 7.4, 2 hours at 37° C.; for Papp A→B at 2 h, 5 µM: apical to basolateral; for Papp B→A at 2 h, 5 μM: basolateral to apical; for efflux ratio at 2 h, 5 µM: MDCK-MDR1, pH 7.4, Papp B>A/Papp A>B
T1 construct: host or cells: MDCK cells
Protocol: Apparent permeability and efflux ratios were generated by Absorption Systems LLP, Exton, PA MDCK cells transfected with human MDR1 (Multidrug resistance protein 1) were grown as monolayers on microporous membranes in 12-well assay plates. Each compound was evaluated at a single concentration equal to 5 μM. The assay buffer consisted of Hanks' balanced salt solution pH 7.4 containing 10 mM HEPES and 15 mM glucose. Test article diluted in assay buffer was dosed to the apical chambers of cell monolayer plates to determine apical to basolateral (A to B) permeability. Basolateral to apical (B to A) permeability was determined by addition of dosing solution to the basolateral chambers. […] Cell monolayers dosed with test article were incubated for 2 hours at 37° C., 5% CO2 in a humidified incubator. Samples were collected from both donor and receiver chambers at 2 hours then prepared for LC-MS/MS analysis using electrospray ionization. Duplicate measurements of A to B and B to A permeability were collected for each compound. Efflux ratio was calculated using the following formula: Papp B>A/Papp A>B. Controls were incorporated to ensure cell monolayer integrity (lucifer yellow) and activity of MDR1 protein (digoxin).

[2] = Rat pharmacokinetics (IV and PO); assay type: in vivo, male Sprague-Dawley rats; settings: male, Sprague-Dawley, plasma; for Vd: read-out: Vdss; for half-life: read-out: T½ (converted); for Tmax: read-out: Tmax range
Protocol: The pharmacokinetics of Compounds 1, 2, 3A, and 4A were assessed in male Sprague-Dawley rats following either intravenously (IV) or orally (PO) dosing. Sin-life portions of the studies were either conducted internally at Neurocrine Biosciences or contracted to Charles River Laboratories or Agilux Laboratories. All studies were performed according to good scientific principles and internal standard operating procedures (SOPs). However, the studies were exploratory in nature and were not conducted in accordance with the United States Food and Drug Administration (FDA) Good Laboratory Guidance (GLP) regulations.
Adult (8-9 weeks old) male rats were acclimated prior to dose administration. For dosing, rats were either dosed intravenously through the femoral vein or orally via oral gavage. Food and water were provided ad libitum during the acclimation period. The rats were maintained in a controlled temperature and humidity environment with a photoperiod with a 12 hour light to dark cycle. Rats were either dosed fed or fasted. In studies where the rats were fasted, rats were allowed access to food four hours post-dose.
For the IV bolus dose, compound was administered over a period of approximately 30 seconds using a 1 mL syringe via the femoral vein catheter. The IV dose was followed with a bolus of sterile saline (approximately 100 μL). For IV infusion doses, compound was administered using an IV infusion pump to deliver the total dose volume over 1 hour. Rats were connected to the infusion pump through catheter tubing that was connected to the femoral catheter prior to the infusion start. For the oral dose, compound was administered using flexible, polypropylene-shafted, silicone bulb shaped-tipped gavage (Instech Solomon plastic feeding tubes, 18 gauge×75 mm). Animals were periodically observed for eight hours following the dose administration for potential test article related effects.
Serial blood samples from IV and PO dosed rats (N=3 or 4) were collected out to 24 hours post-dose. For the time points up to 8 hours post dose, approximately 200 μL of whole blood was drawn from the jugular catheter or from the tail vein with a 1-mL syringe. The whole blood was transferred to a 600 μL Sarstedt collection tube that contained 1.2-2 mg EDTA-K3/mL of anticoagulant, gently mixed, and then centrifuged for 1.0 min at 13,000 rpm. Approximately 100 μL of plasma was aliquoted. Blood for the terminal time points at 24 hours were collected by […] with a syringe containing 1.6 mg EDTA-K3/mL of anticoagulant, transferred to an Eppendorf and immediately centrifuged for 1.0 min at 13,000 rpm. Approximately 300 μL of plasma was aliquoted. The aliquoted plasma samples were stored at −80° C. until analysis.
For IV and PO dose groups, descriptive pharmacokinetics were derived and evaluated based on the plasma concentrations from each individual rat. Pharmacokinetic parameters were determined using non-compartmental analysis (NCA) of plasma concentration-time profiles in Phoenix WinNonlin pharmacokinetic modeling software Professional (version 6.3; Pharsight Corporation). Nominal time was used for all timepoints unless otherwise indicated. Descriptive statistics (means, standard deviations and coefficient of variation) were also generated. Mean pharmacokinetic summaries of Compounds 1-4 following intravenous and PO dosing in Sprague Dawley rats were summarized in Tables 15 and 16.
Plasma samples of compounds 1, 2, 3A, and 4A were prepared by protein precipitation. Calibration standards and quality control plasma samples were prepared from the same lot of reference standard to quantify the concentration of the study samples. […]

[3] = molecular target: T2, human M3 receptor (Homo sapiens, UniProt P20309); experiment: Radioligand ([3H]N-methylscopolamine) binding assay, CHO cell membranes; settings: 1.5 nM tritiated N-methylscopolamine, 90 minutes at 37° C.; read-out: Binding affinity (Ki) M3
T2 construct: expressed in transfected cells; host or cells: CHO cells
Protocol: Binding affinity (Ki) of compounds was measured by inhibition of radioligand binding to membranes from CHO cells expressing human M1, M2, M3, M4 and M5 receptors. Membranes were prepared by nitrogen cavitation and differential centrifugation as previously described (Hoare et al., Mol. Pharmacol. 2003 March; 63(3): 751-65). The radioligand employed was tritiated N-methylscopolamine, used at a concentration of 1.5 nM. A dose-response of twelve concentrations of compound was used, ranging from […]. The assay buffer was 50 mM HEPES, 100 mM NaCl, 5 mM MgCl2, 1 mM ethylenediaminetetraacetic acid, pH-adjusted to pH 7.4. Membranes, radioligand and compound were incubated together for 90 minutes at 37° C., in a total volume of 150 μL in a 96-well plate. Receptor-bound radioligand was then collected by harvesting the assay over glass fiber filters pretreated with polyethylenimine to trap the cell membranes, using rapid vacuum filtration. Harvesting and radioactivity counting was conducted as previously described (see, e.g., Hoare et al., Mol. Pharmacol. 2003 63(3):751-65); Erratum at Mol. Pharmacol. 2005 July; 68(1): 260).

[4] = iv, 2.5 mg/kg, IV bolus, HCl salt
[5] = po, 10 mg/kg, PO 10 mg/kg, 5% Tween-80 in 0.5% (w/v) MC in water (suspension)
[6] = po, 10 mg/kg, PO 10 mg/kg, 30% PG, 20% PEG-400, 0.5% MC in water (solution)
[7] = IV infusion (1 hr), 2 mg/kg, HCl salt
[8] = PO 10 mg/kg, 10% PEG-400 in 0.5% MC in water (solution)
[9] = iv, 2 mg/kg, IV infusion (1 hr), 2 mg/kg, HCl salt
[10] = iv, 2 mg/kg, IV infusion (1 hr), HCl salt
[11] = po, 10 mg/kg, PO 10 mg/kg, 10% PEG-400 in 0.5% MC in water (solution)
[12] = iv, 1 mg/kg, IV bolus, 1 mg/kg, HCl salt
[13] = iv, 1 mg/kg, IV bolus, HCl salt
[14] = po, 10 mg/kg, PO 10 mg/kg, 1% Tween-80 in water (suspension)
[15] = po, 10 mg/kg, PO 10 mg/kg, 10% PEG-400 in 0.5% MC (suspension)

T2 sequence (P20309 whole entry): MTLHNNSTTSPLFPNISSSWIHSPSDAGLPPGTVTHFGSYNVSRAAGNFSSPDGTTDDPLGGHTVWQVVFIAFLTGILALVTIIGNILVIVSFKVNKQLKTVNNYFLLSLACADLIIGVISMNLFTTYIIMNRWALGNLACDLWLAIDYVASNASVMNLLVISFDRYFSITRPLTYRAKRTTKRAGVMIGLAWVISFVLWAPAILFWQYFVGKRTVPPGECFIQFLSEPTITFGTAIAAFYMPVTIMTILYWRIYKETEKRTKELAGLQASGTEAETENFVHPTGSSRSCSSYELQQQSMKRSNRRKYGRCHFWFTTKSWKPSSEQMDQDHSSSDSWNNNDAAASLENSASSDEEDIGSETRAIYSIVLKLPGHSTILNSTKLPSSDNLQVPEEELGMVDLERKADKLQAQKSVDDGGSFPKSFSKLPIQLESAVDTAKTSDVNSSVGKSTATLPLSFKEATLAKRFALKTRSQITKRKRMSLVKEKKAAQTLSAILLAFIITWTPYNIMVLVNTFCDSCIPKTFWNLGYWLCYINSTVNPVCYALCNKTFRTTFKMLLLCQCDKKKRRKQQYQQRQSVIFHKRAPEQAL

Row | Papp A→B at 2 h, 5 µM [1] | Papp B→A at 2 h, 5 μM [1] | efflux ratio at 2 h, 5 µM [1] | AUC(0-inf) [2, 5] | AUC(0-t) [2, 5] | Cmax [2, 5] | Tmax [2, 5] | half-life [2, 5] | Ki [3] | clearance [2, 7] | Vd [2, 7] | bioavailability [2, 8] | half-life [2, 9] | AUC(0-inf) [2, 10] | AUC(0-t) [2, 10] | AUC(0-inf) [2, 11] | AUC(0-t) [2, 11] | Cmax [2, 11] | Tmax [2, 11] | half-life [2, 11] | Structure (SMILES) | also measured
1 | 0.53 ×10⁻⁶ cm/s | 51.2 ×10⁻⁶ cm/s | 96.6 | 1150 ng·h/mL | 1500 ng·h/mL | 205 ng/mL | 0.5 to 4 h | 3.21 h | – | – | – | – | – | – | – | – | – | – | – | – | C[C@@H]1CN(c2ncc(C#N)cn2)C[C@H](C)N1C(=O)NCCC1CCN(Cc2ccccc2)CC1 [Compound 3A] | clearance ([2]; IV bolus, 2.5 mg/kg, HCl salt): 47.5 mL/min/kg; Vd ([2]; IV bolus, 2.5 mg/kg, HCl salt): 4.37 L/kg; bioavailability ([2]; PO 10 mg/kg, 30% PG, 20% PEG-400, 0.5% MC in water (solution)): 43.7%; half-life ([2]; iv, 2.5 mg/kg, IV bolus, 2.5 mg/kg, HCl salt): 1.95 h; AUC(0-inf) [2, 4]: 882 ng·h/mL; AUC(0-t) [2, 4]: 854 ng·h/mL; AUC(0-inf) [2, 6]: 1540 ng·h/mL; AUC(0-t) [2, 6]: 1400 ng·h/mL; Cmax [2, 6]: 247 ng/mL; Tmax [2, 6]: 0.5 to 2 h; half-life [2, 6]: 3.65 h
2 | 17.5 ×10⁻⁶ cm/s | 24.1 ×10⁻⁶ cm/s | 1.38 | – | – | – | – | – | ≥ 1 µM | 44.9 mL/min/kg | 36 L/kg | 81.4% | 11 h | 747 ng·h/mL | 613 ng·h/mL | 3040 ng·h/mL | 2190 ng·h/mL | 130 ng/mL | 2 to 7.5 h | 12.9 h | C[C@@H]1CN(c2cnc(C(F)(F)F)cn2)C[C@@H](C)N1C(=O)OCCC1CCN(Cc2ccccc2)CC1 [Compound 2, 2-(1-benzylpiperidin-4-yl)ethyl (2R,6R)-2,6-dimethyl-4-[5-(trifluoromethyl)pyrazin-2-yl]piperazine-1-carboxylate] | –
3 | 0.55 ×10⁻⁶ cm/s | 68.6 ×10⁻⁶ cm/s | 125 | 3500 ng·h/mL | 2530 ng·h/mL | 231 ng/mL | 1 to 8 h | 7.09 h | – | – | – | 59.2% | – | – | – | 1740 ng·h/mL | 1700 ng·h/mL | 182 ng/mL | 0.5 to 2 h | 4.2 h | C[C@@H]1CN(c2cnc(C(F)(F)F)cn2)C[C@@H](C)N1C(=O)NCCC1CCN(Cc2ccccc2)CC1 [Compound 4A] | clearance ([2]; IV bolus, 1 mg/kg, HCl salt): 56.6 mL/min/kg; Vd ([2]; IV bolus, 1 mg/kg, HCl salt): 16.1 L/kg; half-life [2, 12]: 5.01 h; AUC(0-inf) [2, 13]: 204 ng·h/mL; AUC(0-t) [2, 13]: 288 ng·h/mL
4 | 15 ×10⁻⁶ cm/s | 21.3 ×10⁻⁶ cm/s | 1.42 | – | – | – | – | – | ≥ 1 µM | 15.8 mL/min/kg | 12.1 L/kg | – | 10.2 h | 1680 ng·h/mL | 1780 ng·h/mL | – | 3150 ng·h/mL | 264 ng/mL | 0.5 to 1 h | – | C[C@@H]1CN(c2cnc(C(F)(F)F)cn2)C[C@H](C)N1C(=O)OCCC1CCN(Cc2ccccc2)CC1 [Compound 1, 2-(1-benzylpiperidin-4-yl)ethyl (2R,6S)-2,6-dimethyl-4-[5-(trifluoromethyl)pyrazin-2-yl]piperazine-1-carboxylate] | clearance ([2]; IV bolus, 1 mg/kg, HCl salt): 40.4 mL/min/kg; Vd ([2]; IV bolus, 1 mg/kg, HCl salt): 28.2 L/kg; bioavailability ([2]; PO 10 mg/kg, 10% PEG-400 in 0.5% MC (suspension)): 89.1%; half-life [2, 12]: 9.1 h; AUC(0-inf) [2, 13]: 415 ng·h/mL; AUC(0-t) [2, 13]: 357 ng·h/mL; AUC(0-t) [2, 14]: 3950 ng·h/mL; Cmax [2, 14]: 280 ng/mL; Tmax [2, 14]: 1 h; AUC(0-t) [2, 15]: 3180 ng·h/mL; Cmax [2, 15]: 164 ng/mL; Tmax [2, 15]: 2 to 7.5 h
